According to ChEMBL document CHEMBL1201861, “Genomics of Drug Sensitity in Cancer screening data, Wellcome Trust Sanger Institute”:
Values belong to the compound of their own block, whether it stands above or below them.

Experiments:
Assay in all cases: cells
Assay type in all cases: functional, cell-based, Homo sapiens
SNU-387 = conditions: Homo sapiens, SNU-387
Description: SANGER: Inhibition of human SNU-387 cell growth in a cell viability assay.

HSC-3 = conditions: Homo sapiens, HSC-3
Description: SANGER: Inhibition of human HSC-3 cell growth in a cell viability assay.

ABC-1 = conditions: Homo sapiens, ABC-1;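 note: growth inhibition of human ABC-1 cells, read out by a cell viability assay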
Description: SANGER: Inhibition of human ABC-1 cell growth in a cell viability assay.

J82 = conditions: Homo sapiens, J82;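 note: growth inhibition of J82 cells, read out with a cell viability assay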
Description: SANGER: Inhibition of human J82 cell growth in a cell viability assay.

H-EMC-SS = conditions: Homo sapiens, H-EMC-SS
Description: SANGER: Inhibition of human H-EMC-SS cell growth in a cell viability assay.

OC-314 = conditions: Homo sapiens, OC-314
Description: SANGER: Inhibition of human OC-314 cell growth in a cell viability assay.

SW837 = conditions: Homo sapiens, SW837;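 note: growth inhibition of SW837 cells, determined with a cell viability assay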
Description: SANGER: Inhibition of human SW837 cell growth in a cell viability assay.

VMRC-RCZ = conditions: Homo sapiens, VMRC-RCZ;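 note: growth inhibition measured with a cell viability assay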
Description: SANGER: Inhibition of human VMRC-RCZ cell growth in a cell viability assay.

C-33-A = conditions: Homo sapiens, C-33-A;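 note: cell viability assay measuring growth inhibition of C-33-A cells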
Description: SANGER: Inhibition of human C-33-A cell growth in a cell viability assay.

AN3-CA = conditions: Homo sapiens, AN3-CA;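 note: growth inhibition of human AN3-CA cells measured by a cell viability assay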
Description: SANGER: Inhibition of human AN3-CA cell growth in a cell viability assay.

MC-IXC = conditions: Homo sapiens, MC-IXC;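 note: growth inhibition of MC-IXC cells, read out with a cell viability assay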
Description: SANGER: Inhibition of human MC-IXC cell growth in a cell viability assay.

MKN-1 = conditions: Homo sapiens, MKN-1;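 note: growth inhibition of human MKN1 cells, read out by a cell viability measurement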
Description: SANGER: Inhibition of human MKN1 cell growth in a cell viability assay.

DK-MG = conditions: Homo sapiens, DK-MG;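 note: growth inhibition of DK-MG cells, read out with a cell viability assay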
Description: SANGER: Inhibition of human DK-MG cell growth in a cell viability assay.

HT-1080 = conditions: Homo sapiens, HT-1080
Description: SANGER: Inhibition of human HT-1080 cell growth in a cell viability assay.

SW1783 = conditions: Homo sapiens, SW1783;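 note: cell growth inhibition measured with a viability assay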
Description: SANGER: Inhibition of human SW1783 cell growth in a cell viability assay.

DBTRG-05MG = conditions: Homo sapiens, DBTRG-05MG;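 note: cell viability assay measuring growth inhibition of human DBTRG-05MG cells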
Description: SANGER: Inhibition of human DBTRG-05MG cell growth in a cell viability assay.

NCI-H292 = conditions: Homo sapiens, NCI-H292;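 note: growth inhibition of NCI-H292 cells, read out with a cell viability assay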
Description: SANGER: Inhibition of human NCI-H292 cell growth in a cell viability assay.

RT-112 = conditions: Homo sapiens, RT-112
Description: SANGER: Inhibition of human RT-112 cell growth in a cell viability assay.

HOS = conditions: Homo sapiens, HOS;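 note: growth inhibition of human HOS cells, read out with a cell viability assay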
Description: SANGER: Inhibition of human HOS cell growth in a cell viability assay.

A2058 = conditions: Homo sapiens, A2058;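 note: reduction of A2058 cell growth, read out with a viability assay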
Description: SANGER: Inhibition of human A2058 cell growth in a cell viability assay.

HuO9 = conditions: Homo sapiens, HuO9;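 note: growth inhibition of HuO9 cells, read out with a cell viability assay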
Description: SANGER: Inhibition of human HuO9 cell growth in a cell viability assay.

COLO-680N = conditions: Homo sapiens, COLO-680N;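 note: cell viability assay used to measure inhibition of COLO-680N cell growth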
Description: SANGER: Inhibition of human COLO-680N cell growth in a cell viability assay.

UACC-893 = conditions: Homo sapiens, UACC-893
Description: SANGER: Inhibition of human UACC-893 cell growth in a cell viability assay.

NCI-H2029 = conditions: Homo sapiens, NCI-H2029;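 note: Read-out is a viability assay on the cultured cells, and IC50 is the concentration that suppresses cell growth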
Description: SANGER: Inhibition of human NCI-H2029 cell growth in a cell viability assay.

PANC-08-13 = conditions: Homo sapiens, PANC-08-13;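 note: cell growth inhibition, measured with a cell viability assay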
Description: SANGER: Inhibition of human PANC-08-13 cell growth in a cell viability assay.

HT-3 = conditions: Homo sapiens, HT-3;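 note: growth inhibition measured with a cell viability readout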
Description: SANGER: Inhibition of human HT-3 cell growth in a cell viability assay.

BT-20 = conditions: Homo sapiens, BT-20;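 note: cell viability assay measuring suppression of growth in human BT-20 cells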
Description: SANGER: Inhibition of human BT-20 cell growth in a cell viability assay.

FaDu = conditions: Homo sapiens, FaDu;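 note: cell viability readout of growth inhibition in FaDu cells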
Description: SANGER: Inhibition of human FADU cell growth in a cell viability assay.

HCC38 = conditions: Homo sapiens, HCC38;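 note: cell viability assay on the human HCC38 cell line, with IC50 marking the concentration that inhibits cell growth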
Description: SANGER: Inhibition of human HCC38 cell growth in a cell viability assay.

NCI-H1563 = conditions: Homo sapiens, NCI-H1563;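 note: growth inhibition of human NCI-H1563 cells, read out with a cell viability assay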
Description: SANGER: Inhibition of human NCI-H1563 cell growth in a cell viability assay.

CP50-MEL-B = conditions: Homo sapiens, CP50-MEL-B;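 note: growth inhibition of the human cell line, measured with a cell viability read-out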
Description: SANGER: Inhibition of human CP50-MEL-B cell growth in a cell viability assay.

BCPAP = conditions: Homo sapiens, BCPAP;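 note: growth inhibition of BCPAP cells, read out in a cell viability assay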
Description: SANGER: Inhibition of human BCPAP cell growth in a cell viability assay.

786-0 = conditions: Homo sapiens
Description: SANGER: Inhibition of human 786-0 cell growth in a cell viability assay.

MHH-ES-1 = conditions: Homo sapiens, MHH-ES-1;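 note: cell growth inhibition measured by a cell viability assay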
Description: SANGER: Inhibition of human MHH-ES-1 cell growth in a cell viability assay.

BHY = conditions: Homo sapiens, BHY;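 note: cell growth inhibition read out by a viability assay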
Description: SANGER: Inhibition of human BHY cell growth in a cell viability assay.

DOK = conditions: Homo sapiens, DOK;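 note: cell viability assay read-out, values reflect inhibition of cell growth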
Description: SANGER: Inhibition of human DOK cell growth in a cell viability assay.

A-431 = conditions: Homo sapiens, A-431;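 note: growth inhibition of A-431 cells, determined with a cell viability read-out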
Description: SANGER: Inhibition of human A431 cell growth in a cell viability assay.

NCI-H2052 = conditions: Homo sapiens, NCI-H2052;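 note: growth inhibition of NCI-H2052 cells, read out with a cell viability assay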
Description: SANGER: Inhibition of human NCI-H2052 cell growth in a cell viability assay.

COLO-679 = conditions: Homo sapiens, COLO-679
Description: SANGER: Inhibition of human COLO-679 cell growth in a cell viability assay.

CHL-1 = conditions: Homo sapiens, CHL-1;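 note: cell growth inhibition, read out with a cell viability assay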
Description: SANGER: Inhibition of human CHL-1 cell growth in a cell viability assay.

A204 = conditions: Homo sapiens, A204;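 note: growth inhibition of human A204 cells, read out with a cell viability assay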
Description: SANGER: Inhibition of human A204 cell growth in a cell viability assay.

HTC-C3 = conditions: Homo sapiens, HTC-C3;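 note: inhibition of cell growth, read out with a cell viability assay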
Description: SANGER: Inhibition of human HTC-C3 cell growth in a cell viability assay.

Structure (SMILES): CO[C@H]1C[C@@H]2CC[C@@H](C)[C@@](O)(O2)C(=O)C(=O)N2CCCC[C@H]2C(=O)O[C@H]([C@H](C)C[C@@H]2CC[C@@H](OC(=O)C(C)(CO)CO)[C@H](OC)C2)CC(=O)[C@H](C)/C=C(\C)[C@@H](O)[C@@H](OC)C(=O)[C@H](C)C[C@H](C)/C=C/C=C/C=C/1C [TEMSIROLIMUS]
IC50 (SNU-387): 175 nM
IC50 (HSC-3): 38.7 nM
IC50 (ABC-1): > 200 nM
IC50 (J82): 148 nM
IC50 (H-EMC-SS): > 200 nM
IC50 (OC-314): 17.9 nM
IC50 (SW837): > 200 nM
IC50 (VMRC-RCZ): > 200 nM
IC50 (C-33-A): > 200 nM
IC50 (AN3-CA): 56.9 nM
IC50 (MC-IXC): > 200 nM
IC50 (MKN-1): > 200 nM
IC50 (DK-MG): > 200 nM
IC50 (HT-1080): 17.9 nM
IC50 (SW1783): > 200 nM
IC50 (DBTRG-05MG): > 200 nM
IC50 (NCI-H292): 9.84 nM
IC50 (RT-112): 47.1 nM
IC50 (HOS): 145 nM
IC50 (A2058): 26.6 nM
IC50 (HuO9): 177 nM
IC50 (COLO-680N): > 200 nM
IC50 (UACC-893): > 200 nM
IC50 (NCI-H2029): > 200 nM
IC50 (PANC-08-13): > 200 nM
IC50 (HT-3): > 200 nM
IC50 (BT-20): > 200 nM
IC50 (FaDu): > 200 nM
IC50 (HCC38): > 200 nM
IC50 (NCI-H1563): 106 nM
IC50 (CP50-MEL-B): > 200 nM
IC50 (BCPAP): 58.5 nM
IC50 (786-0): 51.7 nM
IC50 (MHH-ES-1): 91.9 nM
IC50 (BHY): > 200 nM
IC50 (DOK): 41 nM
IC50 (A-431): > 200 nM
IC50 (NCI-H2052): > 200 nM
IC50 (COLO-679): > 200 nM
IC50 (CHL-1): 5.86 nM
IC50 (A204): 38.9 nM
IC50 (HTC-C3): 68.2 nM

IC50 (SNU-387): 248 nM
IC50 (HSC-3): 286 nM
IC50 (ABC-1): 316 nM
IC50 (J82): 1130 nM
IC50 (H-EMC-SS): 378 nM
IC50 (OC-314): 210 nM
IC50 (SW837): 2390 nM
IC50 (VMRC-RCZ): 7750 nM
IC50 (C-33-A): 109 nM
IC50 (AN3-CA): 898 nM
IC50 (MC-IXC): 75.3 nM
IC50 (MKN-1): 623 nM
IC50 (DK-MG): 2900 nM
IC50 (HT-1080): 256 nM
IC50 (SW1783): 213 nM
IC50 (DBTRG-05MG): 1460 nM
IC50 (NCI-H292): 360 nM
IC50 (RT-112): 535 nM
IC50 (HOS): 84.7 nM
IC50 (A2058): 367 nM
IC50 (HuO9): 727 nM
IC50 (COLO-680N): 1430 nM
IC50 (UACC-893): 1430 nM
IC50 (NCI-H2029): 14400 nM
IC50 (PANC-08-13): 3770 nM
IC50 (HT-3): 192 nM
IC50 (BT-20): 656 nM
IC50 (FaDu): 526 nM
IC50 (HCC38): 676 nM
IC50 (NCI-H1563): 124 nM
IC50 (CP50-MEL-B): 69.6 nM
IC50 (BCPAP): 242 nM
IC50 (786-0): 6970 nM
IC50 (MHH-ES-1): 500 nM
IC50 (BHY): 702 nM
IC50 (DOK): 1340 nM
IC50 (A-431): 1470 nM
IC50 (NCI-H2052): 1390 nM
IC50 (COLO-679): 234 nM
IC50 (CHL-1): 11.9 nM
IC50 (A204): 97.8 nM
IC50 (HTC-C3): 1580 nM
Structure (SMILES): CC(C)c1ccccc1Cc1cc(C(=O)Nc2ccc(S(=O)(=O)c3ccccc3C(C)(C)C)cc2)c(O)c(O)c1O

Structure (SMILES): CC1(C)CNc2cc(NC(=O)c3cccnc3NCc3ccncc3)ccc21 [MOTESANIB]
IC50 (SNU-387): > 2000 nM
IC50 (HSC-3): > 2000 nM
IC50 (ABC-1): > 2000 nM
IC50 (J82): > 2000 nM
IC50 (H-EMC-SS): > 2000 nM
IC50 (OC-314): > 2000 nM
IC50 (SW837): > 2000 nM
IC50 (VMRC-RCZ): > 2000 nM
IC50 (C-33-A): > 2000 nM
IC50 (AN3-CA): > 2000 nM
IC50 (MC-IXC): > 2000 nM
IC50 (MKN-1): > 2000 nM
IC50 (DK-MG): > 2000 nM
IC50 (HT-1080): > 2000 nM
IC50 (SW1783): > 2000 nM
IC50 (DBTRG-05MG): > 2000 nM
IC50 (NCI-H292): > 2000 nM
IC50 (RT-112): 1590 nM
IC50 (HOS): > 2000 nM
IC50 (A2058): > 2000 nM
IC50 (HuO9): > 2000 nM
IC50 (COLO-680N): > 2000 nM
IC50 (UACC-893): > 2000 nM
IC50 (NCI-H2029): > 2000 nM
IC50 (PANC-08-13): > 2000 nM
IC50 (HT-3): > 2000 nM
IC50 (BT-20): > 2000 nM
IC50 (FaDu): > 2000 nM
IC50 (HCC38): > 2000 nM
IC50 (NCI-H1563): > 2000 nM
IC50 (CP50-MEL-B): > 2000 nM
IC50 (BCPAP): > 2000 nM
IC50 (786-0): > 2000 nM
IC50 (MHH-ES-1): > 2000 nM
IC50 (BHY): > 2000 nM
IC50 (DOK): > 2000 nM
IC50 (A-431): > 2000 nM
IC50 (NCI-H2052): > 2000 nM
IC50 (COLO-679): > 2000 nM
IC50 (CHL-1): > 2000 nM
IC50 (A204): 519 nM
IC50 (HTC-C3): > 2000 nM
